Reference: ChEMBL document CHEMBL5346933, “Design and synthesis of novel arylurea derivatives of aryloxy(1-phenylpropyl) alicyclic diamines with antimicrobial activity against multidrug-resistant Gram-positive bacteria” (Eur J Med Chem, 2023)
Converted amounts (≈) assume the structure as drawn. The source made the active and inactive calls. The rule behind the calls is not given here.

Columns and labels:
Cell membrane [1] = test: Induction of cell membrane depolarization in Staphylococcus aureus Newman assessed as bacterial cells with polarized membrane potential at 500 uM incubated for 25 to 30 mins by DiOC2(3) probe based flow cytometry (reference value: 94.3%); assay type: subcellular; conditions: time 25-30 min
Cell membrane [2] = test: Induction of cell membrane depolarization in methicillin-resistant Staphylococcus aureus 19449 assessed as bacterial cells with polarized membrane potential at 500 uM incubated for 25 to 30 mins by DiOC2(3) probe based flow cytometry (reference value: 98.8%); assay type: subcellular; conditions: time 25-30 min
Cell membrane [3] = test: Induction of cell membrane depolarization in vancomycin-resistant Enterococcus faecium clinical strain assessed as ratio of red to green fluorescence intensity at 500 uM incubated for 25 to 30 mins by DiOC2(3) probe based flow cytometry; assay type: subcellular; conditions: time 25-30 min
Cell membrane [4] = test: Induction of cell membrane depolarization in methicillin-resistant Staphylococcus aureus 19449 assessed as ratio of red to green fluorescence intensity at 500 uM incubated for 25 to 30 mins by DiOC2(3) probe based flow cytometry; assay type: subcellular; conditions: time 25-30 min
Cell membrane [5] = test: Induction of cell membrane depolarization in Staphylococcus aureus Newman assessed as ratio of red to green fluorescence intensity at 500 uM incubated for 25 to 30 mins by DiOC2(3) probe based flow cytometry; assay type: subcellular; conditions: time 25-30 min
Cell membrane [6] = test: Induction of cell membrane depolarization in vancomycin-resistant Enterococcus faecium clinical strain assessed as bacterial cells with depolarized membrane potential at 500 uM incubated for 25 to 30 mins by DiOC2(3) probe based flow cytometry (reference value: 0.8%); assay type: subcellular; conditions: time 25-30 min
Cell membrane [7] = test: Induction of cell membrane depolarization in Staphylococcus aureus Newman assessed as bacterial cells with depolarized membrane potential at 500 uM incubated for 25 to 30 mins by DiOC2(3) probe based flow cytometry (reference value: 1.6%); assay type: subcellular; conditions: time 25-30 min
Cell membrane [8] = test: Induction of cell membrane depolarization in methicillin-resistant Staphylococcus aureus 19449 assessed as bacterial cells with depolarized membrane potential at 500 uM incubated for 25 to 30 mins by DiOC2(3) probe based flow cytometry (reference value: 0.7%); assay type: subcellular; conditions: time 25-30 min
Cell membrane [9] = test: Induction of cell membrane depolarization in vancomycin-resistant Enterococcus faecium clinical strain assessed as bacterial cells with polarized membrane potential at 500 uM incubated for 25 to 30 mins by DiOC2(3) probe based flow cytometry (reference value: 96.8%); assay type: subcellular; conditions: time 25-30 min
Enterococcus faecalis = test: Antibacterial activity against Enterococcus faecalis ATCC 29212 assessed as inhibition of bacterial growth incubated for 18 hrs by broth microdilution method; assay type: functional
Staphylococcus aureus [10] = test: Antibacterial activity against biofilm producer Staphylococcus aureus RN450 assessed as inhibition of bacterial growth incubated for 18 hrs by broth microdilution method; assay type: functional
[11] = Cytotoxicity against human BJ cells assessed as cell viability at 25 ug/ml incubated for 24 hrs by MTT assay; assay type: toxicity, cell-based; conditions: at 25 µg/mL, read-out: Activity
[12] = Cytotoxicity against human MRC5 cells assessed as reduction in cell viability incubated for 24 hrs by MTT assay; assay type: toxicity, cell-based
[13] = Induction of hemolysis in horse RBC at 200 uM incubated for 1 hr; assay type: toxicity, cell-based, Equus caballus, Erythrocyte; conditions: horse red blood cells (erythrocytes), read-out: Activity
Enterococcus faecium = test: Antibacterial activity against vancomycin-resistant Enterococcus faecium assessed as inhibition of bacterial growth incubated for 18 hrs by broth microdilution method; assay type: functional
Escherichia coli = test: Antibacterial activity against Escherichia coli ATCC 25922 assessed as inhibition of bacterial growth incubated for 18 hrs by broth microdilution method; assay type: functional
[14] = system: Staphylococcus epidermidis; test: Antibacterial activity against biofilm producer Staphylococcus epidermidis ATCC 35984 assessed as inhibition of bacterial growth incubated for 18 hrs by broth microdilution method; assay type: functional
[15] = Cytotoxicity against human BJ cells assessed as reduction in cell viability incubated for 24 hrs by MTT assay; assay type: toxicity, cell-based
Klebsiella pneumoniae = test: Antibacterial activity against Klebsiella pneumoniae ATCC 700603 assessed as inhibition of bacterial growth incubated for 18 hrs by broth microdilution method; assay type: functional
Pseudomonas aeruginosa = test: Antibacterial activity against Pseudomonas aeruginosa ATCC 27853 assessed as inhibition of bacterial growth incubated for 18 hrs by broth microdilution method; assay type: functional
[16] = system: Staphylococcus epidermidis; test: Antibacterial activity against linezolid-resistant Staphylococcus epidermidis NIL 4399/19 assessed as inhibition of bacterial growth incubated for 18 hrs by broth microdilution method; assay type: functional
Staphylococcus aureus [17] = test: Antibacterial activity against methicillin-resistant Staphylococcus aureus clinical strain 19449 assessed as inhibition of bacterial growth incubated for 18 hrs by broth microdilution method; assay type: functional
[18] = system: Staphylococcus epidermidis; test: Antibacterial activity against methicillin-susceptible Staphylococcus epidermidis ATCC 12228 assessed as inhibition of bacterial growth incubated for 18 hrs by broth microdilution method; assay type: functional
Staphylococcus aureus [19] = test: Antibacterial activity against vancomycin-intermediate Staphylococcus aureus ATCC 700699 assessed as inhibition of bacterial growth incubated for 18 hrs by broth microdilution method; assay type: functional
Streptococcus pneumoniae [20] = test: Antibacterial activity against Streptococcus pneumoniae ATCC 49619 assessed as inhibition of bacterial growth incubated for 18 hrs by broth microdilution method; assay type: functional
Staphylococcus aureus [21] = test: Antibacterial activity against methicillin-susceptible Staphylococcus aureus ATCC 25923 assessed as inhibition of bacterial growth incubated for 18 hrs by broth microdilution method; assay type: functional
Streptococcus pneumoniae [22] = test: Antibacterial activity against Oxacillin-resistant Streptococcus pneumoniae O/19/4541 assessed as inhibition of bacterial growth incubated for 18 hrs by broth microdilution method; assay type: functional
Staphylococcus aureus [23] = test: Antibacterial activity against Staphylococcus aureus Newman assessed as inhibition of bacterial growth incubated for 18 hrs by broth microdilution method; assay type: functional
Streptococcus pneumoniae [24] = test: Antibacterial activity against macrolides-lincosamides and streptogramins B-resistant Streptococcus pneumoniae O/19/4199 assessed as inhibition of bacterial growth incubated for 18 hrs by broth microdilution method; assay type: functional

SMILES | MIC (Enterococcus faecalis) | MIC (Staphylococcus aureus [10]) | MIC (Enterococcus faecium) | MIC [14] | MIC [16] | MIC (Staphylococcus aureus [17]) | MIC [18] | MIC (Staphylococcus aureus [19]) | MIC (Streptococcus pneumoniae [20]) | MIC (Staphylococcus aureus [21]) | MIC (Streptococcus pneumoniae [22]) | also measured
N#CC(C#N)=NNc1cccc(Cl)c1 |  |  |  |  |  |  |  |  |  |  |  | Activity (Cell membrane [1]): 0%; Activity (Cell membrane [2]): 0.3%; Ratio (Cell membrane [3]): 0.29; Ratio (Cell membrane [4]): 0.34; Ratio (Cell membrane [5]): 0.33; Activity (Cell membrane [6]): 88.1%; Activity (Cell membrane [7]): 94.5%; Activity (Cell membrane [8]): 99%; Activity (Cell membrane [9]): 6.5%
O=C(Nc1cccc(Cl)c1)NC1CCN(CCC(Oc2cccc(Cl)c2)c2ccccc2)CC1 (racemic) | 3.12 µg/mL (≈ 6.27 µM) | 1.56 µg/mL (≈ 3.13 µM) | 1.56 µg/mL (≈ 3.13 µM) | 1.56 µg/mL (≈ 3.13 µM) | 3.12 µg/mL (≈ 6.27 µM) | 3.12 µg/mL (≈ 6.27 µM) | 3.12 µg/mL (≈ 6.27 µM) | 3.12 µg/mL (≈ 6.27 µM) | 6.25 µg/mL (≈ 12.5 µM) | 3.12 µg/mL (≈ 6.27 µM) |  | viability at 24 h, 25 ug/ml [11]: 91%; IC50 at 24 h [12]: 6.25 µg/mL (≈ 12.5 µM); hemolysis at 1 h, 200 µM [13]: < 1%; Activity (Escherichia coli): inactive; IC50 at 24 h [15]: > 25 µg/mL; Activity (Klebsiella pneumoniae): inactive; Activity (Pseudomonas aeruginosa): inactive
CC(=O)NC[C@H]1CN(c2ccc(N3CCOCC3)c(F)c2)C(=O)O1 [LINEZOLID] | 1.56 µg/mL (≈ 4.62 µM) | 0.78 µg/mL (≈ 2.31 µM) | 0.78 µg/mL (≈ 2.31 µM) | 1.56 µg/mL (≈ 4.62 µM) | 250 µg/mL (≈ 741 µM) | 3.12 µg/mL (≈ 9.26 µM) | 1.56 µg/mL (≈ 4.62 µM) | 1.56 µg/mL (≈ 4.62 µM) | 0.78 µg/mL (≈ 2.31 µM) | 3.12 µg/mL (≈ 9.26 µM) | 1.56 µg/mL (≈ 4.62 µM) | MIC (Staphylococcus aureus [23]): 1.56 µg/mL (≈ 4.62 µM); MIC (Streptococcus pneumoniae [24]): 1.56 µg/mL (≈ 4.62 µM)
CN[C@H](CC(C)C)C(=O)N[C@H]1C(=O)N[C@@H](CC(N)=O)C(=O)N[C@H]2C(=O)N[C@H]3C(=O)N[C@H](C(=O)N[C@H](C(=O)O)c4cc(O)cc(O)c4-c4cc3ccc4O)[C@H](O)c3ccc(c(Cl)c3)Oc3cc2cc(c3O[C@@H]2O[C@H](CO)[C@@H](O)[C@H](O)[C@H]2O[C@H]2C[C@](C)(N)[C@H](O)[C@H](C)O2)Oc2ccc(cc2Cl)[C@H]1O [VANCOMYCIN] | 0.78 µg/mL (≈ 0.538 µM) |  | 50 µg/mL (≈ 34.5 µM) | 0.78 µg/mL (≈ 0.538 µM) |  | 0.78 µg/mL (≈ 0.538 µM) | 0.78 µg/mL (≈ 0.538 µM) | 6.25 µg/mL (≈ 4.31 µM) | 0.39 µg/mL (≈ 0.269 µM) | 0.78 µg/mL (≈ 0.538 µM) | 0.1 µg/mL (≈ 0.069 µM) | 
